pIC50: −log10 of the molar value. Active and inactive are the calls of the source. The rule behind the calls is not given here.
Legend:
Format in all cases: functional, cell-based
[1] = tested on: MDA-MB-231; assay: Cytotoxicity against human MDA-MB-231 cells assessed as reduction in cell viability upto 100 uM incubated for 24 hrs by MTT assay; settings: dose microM <=100, time 24.0 hrs
[2] = tested on: L5178Y; assay: Cytotoxicity against mouse L5178Y cells assessed as reduction in cell viability incubated for 24 hrs by MTT assay
[3] = tested on: MDA-MB-231; assay: Inhibition of cell migration in human MDA-MB-231 at 70 uM incubated for 24 hrs by scratch wound healing assay

Structure (SMILES) | Activity [1] | pIC50 [2] | inhibition [3]
COC(=O)c1cc(O)cc(OC)c1C(=O)c1c(O)cc(C)c(Cl)c1O | inactive | – | –
COC(=O)c1cc(O)cc(OC)c1C(=O)c1c(O)cc(C)cc1O [SULOCHRIN] | inactive | 5.29 | Active

Reference: ChEMBL document CHEMBL4673329, “Polyketides from the marine-derived fungus Aspergillus falconensis: In silico and in vitro cytotoxicity studies” (Bioorg Med Chem, 2021)
